Results published in patent US20150366787A1, “SESBANIA ACULEATA EXTRACTS AND METHODS OF USE” (AVON PRODUCTS, INC., priority 2013, published 2015).

Test system: dorsal forearm skin
Assay: In vivo biopsy (dorsal forearm, histology)
Design: species or system human
Details: 3 weeks semi-occlusion patch, retinol 0.05%
Description: Healthy female Caucasian subjects aged 30-65, with skin type II or III and mild to moderate photo damage, were treated on the dorsal forearm for 3 weeks (3 consecutive rounds of 5×24 hour) under semi-occlusion patches. Test articles including active ingredients, vehicle controls, and retinol were applied in a randomized allocation on 6 sites on each forearm. The application dose was 2 mg/cm^2. After 3 week treatment, a 2 mm punch biopsy was obtained from each treatment site and fixed in 10% buffered formalin. Tissue samples then embedded in paraffin, sectioned (5 μm thickness), and stained for skin markers after re-hydration. […] Retinol at a active concentration of 0.05% was used a positive control. Retinol use at a 0.05% active concentration in the semi-occlusion patch vehicle formulation yielded a visual score of approximately 0.56 out of a 4 point scale in HE staining (measuring hematoxylin and eosin staining, an indication of viable epidermal thickness and health) with 63.6% of the subjects showing an improvement; a visual score of 0.6 out of a 4 point scale in M-TC staining (Masson's trichrome staining, assessing total mature fiber-forming collagen in the dermis—mainly Collagen I, […] and Collagen V) with 51.6% of the subjects showing an improvement; a visual score of 0.52 out of a 4 point scale for pro-Col (measuring new synthesis of Collagen I by skin fibroblasts in the dermis) with 51.6% of the subjects showing an improvement; and a visual score of 0.57 out of a 4 point scale for HA (measuring level of hyaluronic acid in both dermis and epidermis) with 50% of the subjects showing an improvement.

[1] = out of a 4 point scale, extract 0.33%

CC1=C(/C=C/C(C)=C/C=C/C(C)=C/CO)C(C)(C)CCC1 [Retinol]
subjects showing an improvement, HA (extract 0.33%): 50%
subjects showing an improvement, HE staining (extract 0.33%): 63.6%
subjects showing an improvement, M-TC staining (extract 0.33%): 51.6%
subjects showing an improvement, pro-Col (extract 0.33%): 51.6%
visual score in HE staining (viable epidermal thickness and health) (out of a 4 point scale, 2 mg/cm^2, extract 0.33% (Example 1B ethanol/water extract)): approximately 0.56
visual score for HA (hyaluronic acid in dermis and epidermis) [1]: 0.57
visual score for pro-Col (new synthesis of Collagen I) [1]: 0.52
visual score in M-TC staining (total mature fiber-forming collagen in the dermis) [1]: 0.6
